“And” between values parts separate entries of the source, which are not always exact repeats. Equal entries are not always repeated.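 Method: 48-hour compound exposure of cells in 96-well plates, five concentrations, linear interpolation of endpoints. The concentration for 50% growth inhibition is given as GI50. At the TGI there is no net growth.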
What was measured:
Assay in all cases: growth of human tumour cells (NCI), 48 h
OVCAR-5 ovarian = tested on: OVCAR-5 ovarian
SF-268 CNS = tested on: SF-268 CNS
COLO 205 colon = tested on: COLO 205 colon
EKVX NSCLC = tested on: EKVX NSCLC
MDA-MB-231 breast = tested on: MDA-MB-231 breast
786-0 renal = tested on: 786-0 renal
UO-31 renal = tested on: UO-31 renal
UACC-257 melanoma = tested on: UACC-257 melanoma
HS 578T breast = tested on: HS 578T breast
A498 renal = tested on: A498 renal

SMILES	TGI (OVCAR-5 ovarian)	TGI (SF-268 CNS)	TGI (COLO 205 colon)	TGI (EKVX NSCLC)	TGI (MDA-MB-231 breast)	TGI (786-0 renal)	TGI (UO-31 renal)	TGI (UACC-257 melanoma)	TGI (HS 578T breast)	TGI (A498 renal)	GI50 (OVCAR-5 ovarian) [µM]	GI50 (SF-268 CNS)	GI50 (COLO 205 colon)	GI50 (EKVX NSCLC)	GI50 (MDA-MB-231 breast) [µM]	GI50 (786-0 renal) [µM]	GI50 (UO-31 renal)	GI50 (UACC-257 melanoma)	GI50 (A498 renal)	GI50 (HS 578T breast) [µM]
COC(=O)c1cccc(COc2ccc([N+](=O)[O-])cc2Cl)c1	> 100 µM	> 100 µM	> 100 µM	> 100 µM	> 100 µM	> 100 µM	> 100 µM	> 100 µM	> 100 µM	> 100 µM										
N[C@@H](Cc1ccc(N(CCCl)CCCl)cc1)C(=O)O	> 100 µM and 64.7 µM and 140 µM	> 100 µM and 52.2 µM and 148 µM	> 100 µM and 37.1 µM and 107 µM	> 100 µM and 58.3 µM and 128 µM	> 100 µM and 134 µM	48 µM and 72.6 µM	65.2 µM and 81.2 µM and 123 µM	> 100 µM and 58.9 µM and 119 µM	> 100 µM and 165 µM	> 100 µM and > 78.2 µM and 177 µM	19.1	7.08 µM and 5.64 µM	23.6 µM and 18.4 µM	51.3 µM and 37.5 µM and 52 µM	> 100	13.3	12.9 µM and 29.6 µM	37.6 µM and 20.2 µM	33.2 µM and 49.3 µM	
COc1ccc2nc3c(cc2c1)C(=O)CC(C(F)(F)F)C3 (configuration not stated)	> 100 µM	> 100 µM	> 55.9 µM	> 100 µM	> 100 µM	> 100 µM	> 100 µM	> 100 µM	> 100 µM	1.55 µM	5.56	34.6 µM	0.958 µM	4.46 µM	2.34	4.36	1.36 µM	> 96.2 µM	0.278 µM	2.19
CCN(CC)CCCNc1c2cc(OC)ccc2nc2cccc([N+](=O)[O-])c12	0.432 µM	0.593 µM	0.102 µM	0.446 µM	0.319 µM	0.464 µM	0.174 µM	0.416 µM	0.448 µM	0.0647 µM										
COc1cc(Nc2nccc(-c3cnn4ncccc34)n2)cc(OC)c1	1.9 µM	0.48 µM	0.164 µM	4.96 µM	> 11.9 µM	> 17.6 µM	0.196 µM	0.48 µM	> 5.62 µM	0.183 µM	0.0759	0.0697 µM	0.0553 µM	0.113 µM	0.0751	0.0861	0.055 µM	0.0844 µM	0.0576 µM	0.096
COc1nc(C(Cl)(Cl)Cl)c(Cl)c(OC)c1Cl	> 72.4 µM and 78.7 µM	> 92.1 µM and 72.2 µM	> 65.1 µM and 80 µM	> 94.7 µM and 78.3 µM	72.5 µM	> 55.3 µM and 18.8 µM	> 64.3 µM and 75.4 µM	> 72.9 µM and 79.7 µM	75.5 µM	> 55.7 µM and 96.2 µM		> 52.2 µM		> 55.4 µM		> 41.1		> 50.9 µM	> 35.9 µM	
CCCCCCOc1ccc(/C=N/Nc2cc(C)nc3ccc(Br)cc23)cc1	3.36 µM	4.24 µM	3.51 µM	3.14 µM	3.08 µM	3.18 µM	2.89 µM	3.65 µM	4.49 µM	3.09 µM	1.94	2.07 µM	1.85 µM	1.72 µM	1.62	1.71	1.53 µM	1.95 µM	1.58 µM	2.16
O=P1(NCCCl)OCCC(OO)N1CCCl (configuration not stated)	> 100 µM	> 100 µM	> 57.3 µM	> 100 µM	> 100 µM	99.7 µM	> 100 µM	> 82.6 µM	> 100 µM	> 93.3 µM										
NC1=C(O)/C(=N/NS(=O)(=O)c2ccccc2)C(c2cccc(Cl)c2)O1 (configuration not stated)	> 90.4 µM	> 100 µM	30 µM	> 100 µM	37.6 µM	68.5 µM	33.5 µM	> 100 µM	95.1 µM	> 100 µM										
Nc1c(C(=O)Nc2cccc3ccccc23)sc2nc3c(cc12)CCCCCC3	> 50 µM	> 50 µM	4.8 µM	> 50 µM	> 50 µM	> 50 µM	> 50 µM	> 50 µM	> 50 µM	42.5 µM	2.7	2.77 µM	1.45 µM	2.9 µM	2.75	2.13	5.6 µM	> 50 µM	2.48 µM	1.59
COc1cc2c(cc1OC)-c1c(c3ccc([N+](=O)[O-])cc3c(=O)n1CCCBr)C2=O	> 100 µM	> 100 µM	> 100 µM	> 100 µM	> 100 µM	> 100 µM	> 100 µM	> 100 µM	> 100 µM	> 100 µM	> 100	29 µM	> 100 µM	> 100 µM	96.4	2.93	5.23 µM	37.2 µM	43.6 µM	> 100
CCCCCC(=O)OC[n+]1ccc(-c2c(COC(=O)NC(C)C)c(COC(=O)NC(C)C)c3n2CCC3)cc1	> 100 µM	> 100 µM	> 100 µM	> 100 µM	> 100 µM	> 100 µM	> 100 µM	> 100 µM	> 100 µM	> 100 µM										
CC(=O)SC(C[N+](=O)[O-])c1ccccc1 (configuration not stated)	9.11 µM	22.6 µM	7.47 µM	16 µM	27 µM	23.7 µM	5.37 µM	24.5 µM	23.4 µM	20.7 µM										
CN(CC(=O)O)Cc1c[nH]c2ccccc12	> 100 µM	> 100 µM	> 100 µM	> 100 µM	> 100 µM	> 100 µM	> 100 µM	> 100 µM	> 100 µM	> 100 µM										
O=C(/C=C/c1ccco1)c1cccc(Nc2nc(Nc3ccccc3)nc(Nc3ccccc3)n2)c1	> 100 µM	> 100 µM	14.3 µM	> 100 µM	> 100 µM	> 100 µM	> 69.6 µM	> 83.8 µM	> 82.7 µM	1.77 µM	> 100	28.7 µM	2.29 µM	9.82 µM	5.4	8.49	3.97 µM	> 44.7 µM	0.444 µM	12.6
COc1cc(Cl)c(C)cc1NC(=O)c1cc2ccccc2cc1O	14.1 µM	14.3 µM	8.41 µM	9.03 µM	2.72 µM	8.53 µM	10.6 µM	5.93 µM	7.35 µM	4.77 µM	3.47	3.24 µM	2.37 µM	1.65 µM	1.19	3.13	1.29 µM	1.94 µM	1.65 µM	2.1
COc1ccc(/C=N/C2=C(C#N)C(c3ccccc3)c3ccc4ccccc4c3O2)cc1 (configuration not stated)	> 100 µM	> 100 µM	8.49 µM	> 100 µM	8.39 µM	> 100 µM	> 100 µM	> 100 µM	> 100 µM	0.785 µM	0.885	1.65 µM	0.719 µM		0.522	0.492	0.368 µM	> 84.5 µM	0.213 µM	0.279
Nc1c(S(=O)(=O)O)cc2c(c1Cl)C(=O)c1ccccc1C2=O	> 100 µM	> 100 µM	> 100 µM	> 100 µM	> 100 µM	> 100 µM	> 100 µM	> 100 µM	> 100 µM	> 100 µM	> 100	> 100 µM	> 100 µM	> 100 µM	> 100	> 100	> 100 µM	> 100 µM	> 100 µM	> 100
CN(Cc1cccc(Cl)c1)c1ccc(CO)c(Cl)c1	3.84 µM	> 53.5 µM	20.9 µM	52.1 µM	59.9 µM	27.2 µM	37.4 µM	2.15 µM	> 64.5 µM	0.169 µM	0.602	24 µM	7.39 µM	18.4 µM	17.4	12.4	8.41 µM	0.569 µM	0.041 µM	19.7
COc1ccc(-n2cc(-c3ccc(F)cc3)[nH]c2=O)cc1OC	> 100 µM	> 100 µM	> 100 µM	> 100 µM	> 100 µM	> 100 µM	> 100 µM	> 100 µM	> 100 µM	> 100 µM	> 100	> 100 µM	> 100 µM	> 100 µM	> 100	> 100	> 100 µM	> 100 µM	> 100 µM	98.9
COc1cc(/C=C/C(=O)c2ccc(SC)cc2)cc(OC)c1OC	35.6 µM	37.8 µM	31.5 µM	29.4 µM	17.2 µM	20.4 µM	23 µM	18.1 µM	37 µM	17.1 µM	20.6	16 µM	13.3 µM	14.9 µM	4.46	6.43	10.8 µM	5.45 µM	0.936 µM	12.3
Nc1nc(N)c(N=Nc2ccc([As](=O)(O)O)c(O)c2)c(N)n1	> 100 µM	> 100 µM	> 100 µM	> 100 µM	> 100 µM	> 100 µM	> 100 µM	> 100 µM	> 77.3 µM	> 100 µM										
COc1ccc(S(=O)(=O)Nc2c(/C=C\c3cc(OC)c(OC)c(OC)c3)ccc(OC)c2O)cc1OC	> 100 µM	> 100 µM	2.99 µM	> 100 µM	> 100 µM	> 100 µM	> 100 µM	> 100 µM	> 100 µM	0.291 µM	0.751	1.29 µM	0.472 µM	0.452 µM	0.338	0.42	0.864 µM	> 78.2 µM	0.0413 µM	0.251
Cc1cnc2n(c1=O)Cc1ccccc1CO2	> 92.4 µM	67.6 µM	37.1 µM	45.1 µM	32 µM	39.4 µM	44.5 µM	66 µM	> 100 µM	45.4 µM	27.4	20.3 µM	17.1 µM	20.8 µM	11.8	18.8	18.2 µM	23 µM	19.5 µM	23.9
Nc1c2c(c(O)c3c1=C(CO)C=N3)=NCCS2=O (configuration not stated)	3.91 µM	3.27 µM	3.52 µM	7.51 µM	9.69 µM	4.52 µM	3.5 µM	3.14 µM	7.9 µM	25.3 µM	1.66	1.24 µM	1.71 µM	2.51 µM	2.82	1.98	1.68 µM	1.62 µM	12.2 µM	2.78
COc1cc(-c2cc(C(=O)N3CCN(C(=O)c4ccccc4NCc4cccs4)CC3)nc3cc(-c4ccccc4)nn23)cc(OC)c1OC	> 100 µM	> 100 µM	26.5 µM	> 100 µM	> 100 µM	> 100 µM	> 100 µM	> 100 µM	> 100 µM	> 100 µM	15.1	5.93 µM	4.04 µM	53.9 µM	8.67	11.4	6.99 µM	> 100 µM	8.44 µM	36.2
Clc1ccc2c(NCCCNCc3ccc4c(c3)OCO4)ccnc2c1	18.8 µM	12.7 µM	3.48 µM	24 µM	5.78 µM	12 µM	3.1 µM	3.44 µM	11.1 µM	27.6 µM	5.41	3.12 µM	1.73 µM	9.4 µM	1.72	2.88	1.41 µM	1.91 µM	14.4 µM	2.99
O=C(Nc1ccc(-n2cc(-c3ccncc3)c(-c3ccc(Cl)c(O)c3)n2)cc1)c1ccc(Cl)c(C(F)(F)F)c1	29.4 µM	> 31.8 µM	4.64 µM	> 25 µM	1.48 µM	0.919 µM	2.42 µM	39.9 µM		34.9 µM	5.25	2.68 µM	1.94 µM	4.65 µM	0.322	0.308	0.684 µM	3.27 µM	5.53 µM	0.538

Source: PubChem BioAssay (NCI)
